{
  "source": "patent US8691991B2",
  "about": "(priority 2004, dated 2014)",
  "data": [
    {"system": "Pseudotyped HIV vector", "assay": "Pseudotyped HIV vector expressing luciferase reporter assay", "format": "cell-based", "settings": "Human immunodeficiency virus 1", "protocol": "(§1) Pseudotyped HIV Vector Expressing Luciferase Reporter Assay\n(§2) Expression of luciferase reporter following viral integration was performed essentially as described in Jármy, G. et al., J. Medical Virology, 64:223-231, 2001.", "units": {"IC50": "nM"}, "values": [
      {"smiles": "CCn1c(=O)c(C(=O)N[C@@H](C)CO)c(O)c2ncc(Cc3ccc(F)cc3)cc21", "note": "[Example 124, Sodium 1-ethyl-7-[(4-fluorophenyl)methyl]-3-({[(1S)-2-hydroxy-1-methylethyl]amino}carbonyl)-2-oxo-1,2-dihydro-1,5-naphthyridin-4-olate]", "IC50": "< 10"},
      {"smiles": "COCCNC(=O)c1c(O)c2ncc(Cc3ccc(F)cc3)cc2n(CC(N)=O)c1=O", "note": "[Example 162, 1-(2-Amino-2-oxoethyl)-7-[(4-fluorophenyl)methyl]-4-hydroxy-N-[2-(methyloxy)ethyl]-2-oxo-1,2-dihydro-1,5-naphthyridine-3-carboxamide]", "IC50": "< 10"},
      {"smiles": "O=C(NCCO)c1c(O)c2ncc(Cc3ccc(F)cc3)cc2n(-c2ccc(F)cc2)c1=O", "note": "[Example 200, 1-(4-Fluorophenyl)-7-[(4-fluorophenyl)methyl]-4-hydroxy-N-(2-hydroxyethyl)-2-oxo-1,2-dihydro-1,5-naphthyridine-3-carboxamide]", "IC50": "< 10"},
      {"smiles": "CNC(=O)c1c(O)c2ncc(Cc3ccc(F)cc3)cc2n(CC(=O)N(C)C)c1=O", "note": "[Example 237, 1-[2-(Dimethylamino)-2-oxoethyl]-7-(4-fluorobenzyl)-4-hydroxy-N-methyl-2-oxo-1,2-dihydro-1,5-naphthyridine-3-carboxamide]", "IC50": "< 10"},
      {"smiles": "C[C@@H](O)CNC(=O)c1c(O)c2ncc(Cc3ccc(F)cc3)cc2n(CCN2CCCC2=O)c1=O", "note": "[Example 429, 7-(4-Fluorobenzyl)-4-hydroxy-N-[(2R)-2-hydroxypropyl]-2-oxo-1-[2-(2-oxopyrrolidin-1-yl)ethyl]-1,2-dihydro-1,5-naphthyridine-3-carboxamide]", "IC50": "< 10"},
      {"smiles": "CNC(=O)Cn1c(=O)c(C(=O)NCCOC)c(O)c2ncc(Cc3ccc(F)cc3)cc21", "note": "[Example 465, 7-[(4-Fluorophenyl)methyl]-4-hydroxy-1-[2-(methylamino)-2-oxoethyl]-N-[2-(methyloxy)ethyl]-2-oxo-1,2-dihydro-1,5-naphthyridine-3-carboxamide]", "IC50": "< 10"},
      {"smiles": "COCCNC(=O)c1c(O)c2ncc(Cc3ccc(F)cc3)cc2n(Cc2nccn2C)c1=O", "note": "[Example 467, 7-[(4-Fluorophenyl)methyl]-4-hydroxy-1-[(1-methyl-1H-imidazol-2-yl)methyl]-N-[2-(methyloxy)ethyl]-2-oxo-1,2-dihydro-1,5-naphthyridine-3-carboxamide]", "IC50": "< 10"},
      {"smiles": "Cn1c(=O)c(C(=O)NC[C@@H](O)CO)c(O)c2ncc(Cc3ccc(F)cc3)cc21", "note": "[Example 516, N-[(2R)-2,3-Dihydroxypropyl]-7-[(4-fluorophenyl)methyl]-4-hydroxy-1-methyl-2-oxo-1,2-dihydro-1,5-naphthyridine-3-carboxamide]", "IC50": "< 10"},
      {"smiles": "CCN(CC)CCNC(=O)c1c(O)c2ncc(Cc3ccccc3)cc2[nH]c1=O", "note": "[N-[2-(Diethylamino)ethyl]-4-hydroxy-2-oxo-7-(phenylmethyl)-1,2-dihydro-1,5-naphthyridine-3-carboxamide, reference compound]", "IC50": "> 150"}
    ]},
    {"target": "Pseudotyped HIV vector", "assay": "Pseudotyped HIV vector expressing luciferase reporter assay", "format": "cell-based", "settings": "luciferase reporter following viral integration; read-out: IC50", "protocol": "as §1, §2", "units": {"IC50": "nM"}, "values": [
      {"smiles": "C[C@H](O)CNC(=O)c1c(O)c2ncc(Cc3ccc(F)cc3)cc2n(CCN2CCCC2=O)c1=O", "note": "[Example 428, 7-(4-Fluorobenzyl)-4-hydroxy-N-[(2S)-2-hydroxypropyl]-2-oxo-1-[2-(2-oxopyrrolidin-1-yl)ethyl]-2-dihydro-1,5-naphthyridine-3-carboxamide]", "IC50": "< 10"}
    ]},
    {"system": "HIV-1 (strain IIIB)", "assay": "MT4 cell assay: antiviral HIV activity (HIV-induced cytopathic effect)", "format": "cell-based", "settings": "Human immunodeficiency virus 1, IIIB, control and standard, propidium iodide readout, tested 0.01 to 1 μM in every assay, read-out: expected range of IC50 values", "protocol": "Antiviral HIV activity and compound-induced cytotoxicity were measured in parallel by means of a propidium iodide based procedure in the human T-cell lymphotropic virus transformed cell line MT4. Aliquots of the test compounds were serially diluted in medium (RPMI 1640, 10% fetal calf serum (FCS), and gentamycin) in 96-well plates (Costar 3598) using a Cetus Pro/Pette. Exponentially growing MT4 cells were harvested and centrifuged at 1000 rpm for 10 min in a Jouan centrifuge (model CR 4 12). Cell pellets were resuspended in fresh medium (RPMI 1640, 20% FCS, 20% IL-2, and gentamycin) to a density of 5×10^5 cells/ml. Cell aliquots were infected by the addition of HIV-1 (strain IIIB) diluted to give a viral multiplicity of infection of 100×TCID50. […]\nFor propidium iodide readout, 27 μl of 5% Nonidet-40 was added to each well of the incubation plate. […] The plates were analyzed in an automated assay instrument (Screen Machine, Idexx Laboratories). […]\nFor MTS readout, 20 μl CellTiter 96 AQ One Solution reagent (Promega #G3582) was added to each well. At 75 minutes following the addition of MTS reagent, absorbance was read at […] using a Tecan Sunrise 96-well plate reader. […]\nFor each assay plate, the results (relative fluorescence units, rfU, or OD values) of wells containing uninfected cells or infected cells with no compound were averaged, respectively. […]", "units": {"IC50": "nM"}, "values": [
      {"smiles": "Cc1cn([C@H]2C[C@H](N=[N+]=[N-])[C@@H](CO)O2)c(=O)[nH]c1=O", "note": "[3′-azido-3′-deoxythymidine]", "IC50": "40 to 120"}
    ]}
  ]
}
